Molecular target: Beta-lactamase P99 (Enterobacter cloacae) (UniProt P05364)
Experiment: Inhibition of hydrolysis of nitrocefin after 5 min pre-incubation with P99 beta-lactamases (class C)

Sequence of Beta-lactamase P99 (Enterobacter cloacae) (P05364 whole entry, looked up): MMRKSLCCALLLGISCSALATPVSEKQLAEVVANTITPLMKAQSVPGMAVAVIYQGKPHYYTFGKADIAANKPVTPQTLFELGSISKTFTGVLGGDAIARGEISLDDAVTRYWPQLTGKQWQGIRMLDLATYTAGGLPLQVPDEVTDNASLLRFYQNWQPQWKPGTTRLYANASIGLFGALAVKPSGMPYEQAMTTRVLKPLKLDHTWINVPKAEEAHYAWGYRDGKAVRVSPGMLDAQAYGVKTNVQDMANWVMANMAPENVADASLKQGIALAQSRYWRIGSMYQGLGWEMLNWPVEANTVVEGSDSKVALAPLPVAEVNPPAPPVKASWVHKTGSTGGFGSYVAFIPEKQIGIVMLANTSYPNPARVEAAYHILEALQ

Row | SMILES | IC50 [µM]
1 | CC[C@@H]1C(=O)N2C[C@@H]1CC(OC)=C2C(=O)O [(1S,5R,6S)-6-Ethyl-3-methoxy-7-oxo-1-aza-bicyclo[3.2.1]oct-2-ene-2-carboxylic acid] | 100
2 | COC1=C[C@@H]2CC(=O)N(C2)C1C(=O)O (stereo partly drawn) [(1S,5S)-3-Methoxy-7-oxo-1-aza-bicyclo[3.2.1]oct-3-ene-2-carboxylic acid] | 140
3 | COC1=C(C(=O)OCc2ccc([N+](=O)[O-])cc2)N2C[C@@H](CC2=O)C1 [(1S,5R)-3-Methoxy-7-oxo-1-aza-bicyclo[3.2.1]oct-2-ene-2-carboxylic acid 4-nitro-benzyl ester] | 160
4 | COC1=C[C@@H]2CC(=O)N(C2)C1C(=O)OCc1ccc([N+](=O)[O-])cc1 (stereo partly drawn) [(1S,5S)-3-Methoxy-7-oxo-1-aza-bicyclo[3.2.1]oct-3-ene-2-carboxylic acid 4-nitro-benzyl ester] | 25
5 | CC[C@@H]1C(=O)N2C[C@@H]1CC(OC)=C2C(=O)OCc1ccc([N+](=O)[O-])cc1 [(1S,5R,6S)-6-Ethyl-3-methoxy-7-oxo-1-aza-bicyclo[3.2.1]oct-2-ene-2-carboxylic acid 4-nitro-benzyl ester] | 300

Molecular target: Beta-lactamase P99 (Enterobacter cloacae) (UniProt P05364)
Experiment: Time dependent inhibition of hydrolysis of nitrocefin after 5 min pre-incubation with P99 beta-lactamases (class C)

Row | SMILES | IC50 [µM]
6 | CC[C@@H]1C(=O)N2C[C@@H]1C=C(OC)C2C(=O)OCc1ccc([N+](=O)[O-])cc1 (stereo partly drawn) [(1S,5R,6S)-6-Ethyl-3-methoxy-7-oxo-1-aza-bicyclo[3.2.1]oct-3-ene-2-carboxylic acid 4-nitro-benzyl ester] | 210
